Values of other authors, collected in patent US20100092398A1, “ANTIMICROBIAL COMPOSITIONS AND APPLICATIONS THEREFORE” (priority 2004, published 2010).

Conditions: range given for terpinen-4-ol

## CC1=CCC(O)(C(C)C)CC1 (stereo not shown) [terpinen-4-ol]
  Relative density @ 20° C.: 0.930 to 0.936 g/mL
